For six molecules, hemolysis, MIC and Activity results are on record in ChEMBL document CHEMBL1159340, “Antibacterial diterpenes from Calceolaria pinifolia” (J Nat Prod, 2003).

In brackets after ≈: the same amount, converted by molar mass.

The nature of series [1]: Toxicity in human RBC assessed as hemolysis at 8 ug/ml after 2 hrs. Format: cell-based, Erythrocyte. Particulars: red blood cells (RBC), read-out: Activity.
Series [2] can be described thus: Toxicity in human RBC assessed as hemolysis at 1 ug/ml after 2 hrs. The series is classed as cell-based, Erythrocyte. Particulars: red blood cells (RBC), read-out: Activity.
Series [3] can be described thus: Toxicity in human RBC assessed as hemolysis at 4 ug/ml after 2 hrs. The series is classed as cell-based, Erythrocyte. Particulars: red blood cells (RBC), read-out: Activity.
Series [4] is described as follows: Toxicity in human RBC assessed as hemolysis at 2 ug/ml after 2 hrs. Particulars: red blood cells (RBC), read-out: Activity. Format: cell-based, Erythrocyte.
Series [5] is described as follows: Toxicity in human RBC assessed as hemolysis at 16 ug/ml after 2 hrs. Format: cell-based, Erythrocyte. The conditions noted are these: red blood cells (RBC), read-out: Activity.
Series [6] in a line: Toxicity in human RBC assessed as hemolysis at 0.5 ug/ml after 2 hrs. Format: cell-based, Erythrocyte. Particulars: red blood cells (RBC), read-out: Activity.
Series [7] has as its system Staphylococcus aureus. The series is described as follows: Antimicrobial activity against methicillin-susceptible Staphylococcus aureus 375 after 18 hrs by microbroth dilution method. The series is classed as functional.
Series [8] deals with Bacillus subtilis. The series is described as follows: Antimicrobial activity against Bacillus subtilis 327 after 18 hrs by microbroth dilution method. Format: functional.
The subject of series [9] is Staphylococcus aureus. Briefly: Antimicrobial activity against methicillin-resistant Staphylococcus aureus 310 after 18 hrs by microbroth dilution method. The series is classed as functional.
Another series has as its system Escherichia coli. The series is described as follows: Antimicrobial activity against Escherichia coli imp 389 after 18 hrs by microbroth dilution method. The series is classed as functional.
Series [10] has as its system Bacillus subtilis. The series is described as follows: Inhibition of RNA synthesis in Bacillus subtilis assessed as incorporation of [3H]uridine at 8 ug/mL by LKB Betaplate scintillation counter relative to control. The series is classed as functional. Details: scale not given: the % may be the effect or the level left.
In series [11] the test system is Bacillus subtilis. The series is described as follows: Inhibition of DNA synthesis in Bacillus subtilis assessed as [3H]thymidine uptake at 8 ug/mL by LKB Betaplate scintillation counter relative to control. Format: functional. Details: scale not given: the % may be the effect or the level left.
Series [12] relates to Bacillus subtilis. Briefly: Inhibition of RNA synthesis in Bacillus subtilis assessed as [3H]uridine uptake at 8 ug/mL by LKB Betaplate scintillation counter relative to control. Details: scale not given: the % may be the effect or the level left. The series is classed as functional.
Series [13] has as its system Bacillus subtilis. Briefly: Inhibition of protein synthesis in Bacillus subtilis assessed as [3H]amino acid uptake at 8 ug/mL by LKB Betaplate scintillation counter relative to control. The series is classed as functional. Details: scale not given: the % may be the effect or the level left.
Series [14] has as its system Bacillus subtilis. Briefly: Inhibition of DNA synthesis in Bacillus subtilis assessed as incorporation of [3H]thymidine at 8 ug/mL by LKB Betaplate scintillation counter relative to control. Format: functional. The arrangement: scale not given: the % may be the effect or the level left.
The subject of series [15] is Bacillus subtilis. Briefly: Inhibition of protein synthesis in Bacillus subtilis assessed as incorporation of [3H]amino acid at 8 ug/mL by LKB Betaplate scintillation counter relative to control. Format: functional. The arrangement: scale not given: the % may be the effect or the level left.

Take `C[C@@H]1[C@H](O)[C@@H](C)/C=C/C=C/C=C/C=C/C=C/C=C/C=C/[C@H](O[C@@H]2O[C@H](C)[C@@H](O)[C@H](N)[C@@H]2O)C[C@@H]2O[C@](O)(C[C@@H](O)C[C@@H](O)[C@H](O)CC[C@@H](O)C[C@@H](O)CC(=O)O[C@H]1C)C[C@H](O)[C@H]2C(=O)O` [AMPHOTERICIN B]: the hemolysis at 2 h, 8 ug/ml in series [1] amounted to 96.9%. For the same molecule, the hemolysis at 2 h, 1 ug/ml in series [2] stood at 9.7%. In addition, the hemolysis at 2 h, 4 ug/ml in [3] turned out to be 74.6%. The hemolysis at 2 h, 2 ug/ml in [4] came out at 27.5%. Further, the hemolysis at 2 h, 16 ug/ml in [5] stood at 118%. Also, the hemolysis at 2 h, 0.5 ug/ml in series [6] was determined as 0%.
As for `CC(C)c1ccc2c(c1)CC[C@H]1[C@](C)(CO)CCC[C@]21C` [POMIFERIN A], the minimal inhibitory concentration (MIC) in the series on Staphylococcus aureus [7] was 4 µg/mL (≈ 14 µM); in the series with Bacillus subtilis [8] it was 8 µg/mL (≈ 27.9 µM); in the series with Staphylococcus aureus [9], 4 µg/mL (≈ 14 µM); against Escherichia coli, greater than 128 µg/mL.
For the molecule `C[C@H]1[C@H](C)CC[C@]2(C(=O)O)CC[C@]3(C)C(=CC[C@@H]4[C@@]5(C)CC[C@@H](O)C(C)(C)[C@@H]5CC[C@]43C)[C@H]12`, the minimum inhibitory concentration (MIC) against Staphylococcus aureus [7] was greater than 128 µg/mL; against Bacillus subtilis [8] it was 64 µg/mL (≈ 140 µM); against Escherichia coli it was greater than 128 µg/mL.
For `CC1(C)S[C@@H]2[C@H](NC(=O)Cc3ccccc3)C(=O)N2[C@H]1C(=O)O` [PENICILLIN G], the MIC against Staphylococcus aureus [7] was 0.03 µg/mL (≈ 0.0897 µM); with Bacillus subtilis [8], 0.03 µg/mL (≈ 0.0897 µM); in the series on Staphylococcus aureus [9], 128 µg/mL (≈ 383 µM); against Escherichia coli, 1 µg/mL (≈ 2.99 µM).
Consider `O=C(N[C@H](CO)[C@H](O)c1ccc([N+](=O)[O-])cc1)C(Cl)Cl` [CHLORAMPHENICOL], for which the Activity in the series with Bacillus subtilis [10] is reported as 166%; in the series on Bacillus subtilis [11], 74%; with Bacillus subtilis [12] it was 141%; in the series on Bacillus subtilis [13] it was 83%; in the series with Bacillus subtilis [14], 80%; in the series with Bacillus subtilis [15] it was 10%.
`C=C[C@]1(C)CCC2=C(CC[C@@H]3[C@](C)(CO)CCC[C@@]23C)C1`: the minimal inhibitory concentration (MIC) was 32 µg/mL (≈ 111 µM) in the series with Staphylococcus aureus [7], 32 µg/mL (≈ 111 µM) in the series with Bacillus subtilis [8], 64 µg/mL (≈ 222 µM) in the series on Staphylococcus aureus [9] and greater than 128 µg/mL with Escherichia coli.
